# Several values for one entry are separate records, joined by “and”; a condition that tells them apart may be missing. Equal entries are not always repeated. Where two headings read alike, the source gives them in different places.
# What was measured:
# hCB1R [1] = biological target: T1, hCB1R (Homo sapiens, UniProt P21554); assay: biochemical; format: binding
# T1 construct: host or cells: CHO
# mCB1R [2] = biological target: T2, mCB1R (Mus musculus, UniProt P47746); assay: biochemical; format: binding
# T2 construct: from tissue; host or cells: brain of male C57BL/6J mice
# hCB1R [3] = biological target: T1, hCB1R; assay: cell-based
# mCB1R [4] = biological target: T2, mCB1R; assay: biochemical
# hCB1R [5] = biological target: T1, hCB1R; assay: cell-based; format: cell-based; conditions: read-out: Emax ± SEM pERK hCB1R
# hCB1R [6] = biological target: T1, hCB1R; assay: cell-based; format: cell-based; conditions: AtT20, read-out: Emax ± SEM GIRK hCB1R
# [7] = tested on: AEA reuptake in HaCaT cells; assay: cells; format: cell-based, human; conditions: Homo sapiens, HaCaT
# C57BL6/J mice [8] = assay: Triad assay: catalepsy; format: in vivo, mouse; conditions: i.p., cumulative dosing, mice
# C57BL6/J mice [9] = assay: Triad assay: antinociception; format: in vivo, mouse; conditions: i.p., cumulative dosing, mice
# C57BL6/J mice [10] = assay: Triad assay: hypothermia; format: in vivo, mouse; conditions: i.p., cumulative dosing, mice
# physchem = conditions: pH 6.5, aqueous buffer, thermodynamic from solid
# in vitro [11] = conditions: both, human, microsomes, pH 7.4
# in vitro [12] = conditions: male, C57BL/6J, mouse, microsomes, pH 7.4
# mCB2R [13] = biological target: T3, mCB2R (Mus musculus, UniProt P47936); assay: biochemical; format: binding; set-up: from tissue; host or cells: spleen of male C57BL/6J mice; conditions: mouse spleen membranes; read-out: pKi ± SEM mCB2R (converted)
# mCB2R [14] = biological target: T3, mCB2R; assay: biochemical; format: biochemical; set-up: from tissue; host or cells: spleen of male C57BL/6J mice
# hCB2R [15] = biological target: T4, hCB2R (Homo sapiens, UniProt P34972); assay: cell-based; format: cell-based; set-up: expressed in transfected cells; host or cells: Flp-In-293 (Invitrogen #R750-07), pcDNA5/FRT; conditions: read-out: Emax ± SEM cAMP hCB2R
# hCB2R [16] = biological target: T4, hCB2R; assay: cell-based; format: cell-based; set-up: expressed in transfected cells; host or cells: Flp-In-293 (Invitrogen #R750-07), pcDNA5/FRT; conditions: read-out: Emax ± SEM pERK hCB2R
# hCB2R [17] = biological target: T4, hCB2R; assay: cell-based; format: cell-based; set-up: expressed in transfected cells; host or cells: Flp-In-293 (Invitrogen #R750-07), pcDNA5/FRT; conditions: AtT20, read-out: Emax ± SEM GIRK hCB2R
# hCB2R [18] = biological target: T4, hCB2R; set-up: expressed in transfected cells; host or cells: Flp-In-293 (Invitrogen #R750-07), pcDNA5/FRT
# T2 sequence (P47746 whole entry): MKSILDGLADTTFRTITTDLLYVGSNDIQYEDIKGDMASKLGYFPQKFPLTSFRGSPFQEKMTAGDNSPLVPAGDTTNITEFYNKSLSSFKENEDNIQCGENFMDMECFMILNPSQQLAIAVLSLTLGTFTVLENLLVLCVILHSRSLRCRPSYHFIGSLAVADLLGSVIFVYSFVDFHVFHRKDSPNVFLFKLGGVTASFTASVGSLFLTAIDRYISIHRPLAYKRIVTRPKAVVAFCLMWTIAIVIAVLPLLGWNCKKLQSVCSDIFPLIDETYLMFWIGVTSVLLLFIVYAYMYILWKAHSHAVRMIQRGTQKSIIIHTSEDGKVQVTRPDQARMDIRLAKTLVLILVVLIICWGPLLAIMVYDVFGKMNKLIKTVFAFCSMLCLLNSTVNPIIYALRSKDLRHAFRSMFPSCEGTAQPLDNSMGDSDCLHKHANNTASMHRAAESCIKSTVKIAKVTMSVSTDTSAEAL
# T4 sequence (P34972 whole entry): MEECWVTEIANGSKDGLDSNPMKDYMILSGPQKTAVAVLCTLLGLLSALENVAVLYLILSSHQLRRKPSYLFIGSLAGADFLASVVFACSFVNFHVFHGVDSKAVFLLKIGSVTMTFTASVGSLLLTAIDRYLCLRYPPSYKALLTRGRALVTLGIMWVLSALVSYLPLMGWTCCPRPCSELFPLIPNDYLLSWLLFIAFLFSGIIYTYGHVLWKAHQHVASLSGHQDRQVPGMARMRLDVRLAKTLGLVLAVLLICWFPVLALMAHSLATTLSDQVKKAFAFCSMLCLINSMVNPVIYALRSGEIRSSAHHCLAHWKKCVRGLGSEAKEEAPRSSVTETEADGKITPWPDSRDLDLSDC
# T3 sequence (P47936 whole entry): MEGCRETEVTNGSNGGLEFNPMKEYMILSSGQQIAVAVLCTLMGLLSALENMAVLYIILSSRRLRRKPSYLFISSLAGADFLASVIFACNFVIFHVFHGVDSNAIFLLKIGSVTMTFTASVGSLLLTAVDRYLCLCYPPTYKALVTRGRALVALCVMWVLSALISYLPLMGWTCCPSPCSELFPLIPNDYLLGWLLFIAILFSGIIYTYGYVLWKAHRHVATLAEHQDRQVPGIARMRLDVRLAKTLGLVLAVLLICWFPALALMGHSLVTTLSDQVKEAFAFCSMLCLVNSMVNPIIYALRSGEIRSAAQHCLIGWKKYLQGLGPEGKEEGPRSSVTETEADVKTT
# T1 sequence (P21554 whole entry): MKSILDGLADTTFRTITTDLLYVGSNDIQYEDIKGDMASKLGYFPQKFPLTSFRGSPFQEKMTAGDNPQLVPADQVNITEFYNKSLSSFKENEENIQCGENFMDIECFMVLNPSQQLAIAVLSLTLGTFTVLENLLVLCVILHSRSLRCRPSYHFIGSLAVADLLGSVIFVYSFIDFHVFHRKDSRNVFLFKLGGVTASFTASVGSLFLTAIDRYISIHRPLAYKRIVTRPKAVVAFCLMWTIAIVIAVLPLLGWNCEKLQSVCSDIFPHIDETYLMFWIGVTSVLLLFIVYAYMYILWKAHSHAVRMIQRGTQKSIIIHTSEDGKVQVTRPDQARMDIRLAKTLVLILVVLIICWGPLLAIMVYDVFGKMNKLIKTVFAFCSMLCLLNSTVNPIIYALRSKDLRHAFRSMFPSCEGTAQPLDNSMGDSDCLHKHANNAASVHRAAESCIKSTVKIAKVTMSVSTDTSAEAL
compound,measurement,setting,value
CCCCCCC(C)(C)c1cc(O)c2c(c1)OC(C)(C)[C@@H]1CC=C(CO)C[C@@H]21 [HU210],Ki,hCB1R [1],0.282 nM
same,Ki,mCB1R [2],1.1 nM
same,EC50,hCB1R [3]; pEC50 ± SEM cAMP hCB1R,0.263 nM
same,Emax,hCB1R [3]; read-out: Emax ± SEM cAMP hCB1R,104 ± 3%
same,EC50,mCB1R [4]; pEC50 ± SEM cAMP mCB1R,0.0933 nM
same,Emax,mCB1R [4]; read-out: Emax cAMP mCB1R,65%
same,Emax,hCB1R [5],96 ± 7%
same,Emax,hCB1R [6],97 ± 8%
same,inhibition at 10 µM,"[7]; read-out: AEA reuptake % inhibition, effect at 10 µM, HaCaT cells, 10 µM (values marked *)",44%
same,IC50,[7]; read-out: AEA reuptake IC50 (95% CI) HaCaT cells,> 5000 nM
same,catalepsy ED50 (95% CL),C57BL6/J mice [8],0.19 (0.14–0.27) mg kg^−1
same,antinociception ED50 (95% CL),C57BL6/J mice [9],0.41 (0.31–0.54) mg kg^−1
same,hypothermia ED50 (95% CL),C57BL6/J mice [10],0.35 (0.30–0.41) mg kg^−1
same,Pct acceptor,PAMPA,0%
same,Pct donor,PAMPA,23%
same,Pct membrane,"PAMPA, compound found in membranes",76%
same,Pampa Peff,membrane permeation coefficient,0.22 cm/s*10-6
same,solubility kinetic,physchem,< 0.2 µg/mL and < 0.5 µM
same,microsomal CLint,in vitro [11],25 µL/min/mg
same,microsomal CLint,in vitro [12],33 µL/min/mg
same,Ki,mCB2R [13],0.537 nM
same,EC50,"mCB2R [14]; mouse spleen, read-out: pEC50 ± SEM cAMP mCB2R (converted)",6.61 nM
same,Emax,mCB2R [14]; read-out: Emax cAMP mCB2R,68%
same,Emax,hCB2R [15],94 ± 0.1%
same,Emax,hCB2R [16],105 ± 10%
same,Emax,hCB2R [17],105 ± 4%
same,LogR GIRK,hCB2R [18],7.19
same,LogR pERK,hCB2R [18],8.22
same,RE GIRK,hCB2R [18],0.21
same,RE pERK,hCB2R [18],0.15
same,pERK-GIRK bias factor (BF),hCB2R [18],0.71
same,pERK-GIRK ΔΔlogR,hCB2R [18],-0.15
same,ΔLogR GIRK,hCB2R [18],-0.67
same,ΔLogR pERK,hCB2R [18],-0.82
